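Test compounds were applied to cells in 96-well plates for 48 hours at 5 doses. Here, GI50 denotes the concentration required for 50% inhibition of growth. TGI: concentration producing complete growth inhibition.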
Assays:
Test in all cases: NCI anticancer screen, dose series, 48 h
DU-145 prostate = tested on: DU-145 prostate
OVCAR-5 ovarian = tested on: OVCAR-5 ovarian
NCI/ADR-RES ovarian = tested on: NCI/ADR-RES ovarian
OVCAR-8 ovarian = tested on: OVCAR-8 ovarian
RXF 393 renal = tested on: RXF 393 renal
MDA-MB-231 breast = tested on: MDA-MB-231 breast
HS 578T breast = tested on: HS 578T breast
NCI-H522 lung = tested on: NCI-H522 lung
HL-60(TB) leukemia = tested on: HL-60(TB) leukemia
HOP-62 NSCLC = tested on: HOP-62 NSCLC
SNB-19 CNS = tested on: SNB-19 CNS
786-0 renal = tested on: 786-0 renal
ACHN renal = tested on: ACHN renal
SK-MEL-5 melanoma = tested on: SK-MEL-5 melanoma
HT29 colon = tested on: HT29 colon
U251 CNS = tested on: U251 CNS
HCT-116 colon = tested on: HCT-116 colon
MCF7 breast = tested on: MCF7 breast
BT-549 breast = tested on: BT-549 breast
MDA-MB-435 = tested on: MDA-MB-435
SN12C renal = tested on: SN12C renal
NCI-H460 lung = tested on: NCI-H460 lung
UO-31 renal = tested on: UO-31 renal
SNB-75 CNS = tested on: SNB-75 CNS
IGROV1 ovarian = tested on: IGROV1 ovarian
HCC-2998 colon = tested on: HCC-2998 colon
K-562 leukemia = tested on: K-562 leukemia
TK-10 renal = tested on: TK-10 renal
NCI-H23 lung = tested on: NCI-H23 lung
CAKI-1 renal = tested on: CAKI-1 renal
SK-MEL-28 melanoma = tested on: SK-MEL-28 melanoma
COLO 205 colon = tested on: COLO 205 colon
HCT-15 colon = tested on: HCT-15 colon
MOLT-4 leukemia = tested on: MOLT-4 leukemia
UACC-257 melanoma = tested on: UACC-257 melanoma
CCRF-CEM leukemia = tested on: CCRF-CEM leukemia
SR leukemia = tested on: SR leukemia
SF-539 CNS = tested on: SF-539 CNS
HOP-92 NSCLC = tested on: HOP-92 NSCLC
RPMI-8226 leukemia = tested on: RPMI-8226 leukemia
SF-295 CNS = tested on: SF-295 CNS
A498 renal = tested on: A498 renal
SK-OV-3 ovarian = tested on: SK-OV-3 ovarian
PC-3 prostate = tested on: PC-3 prostate
SK-MEL-2 melanoma = tested on: SK-MEL-2 melanoma
KM12 colon = tested on: KM12 colon
SF-268 CNS = tested on: SF-268 CNS
M14 melanoma = tested on: M14 melanoma
OVCAR-3 ovarian = tested on: OVCAR-3 ovarian
A549 NSCLC = tested on: A549 NSCLC
NCI-H226 lung = tested on: NCI-H226 lung
SW-620 colon = tested on: SW-620 colon
MALME-3M melanoma = tested on: MALME-3M melanoma
LOX IMVI melanoma = tested on: LOX IMVI melanoma
OVCAR-4 ovarian = tested on: OVCAR-4 ovarian
UACC-62 melanoma = tested on: UACC-62 melanoma
T-47D breast = tested on: T-47D breast

SMILES: COc1ccccc1-c1c(C)nn2c(NCc3ccccn3)cc(C)nc12
- GI50 (DU-145 prostate): > 40.2 µM
- TGI (DU-145 prostate): > 50 µM
- GI50 (OVCAR-5 ovarian): > 50 µM
- TGI (OVCAR-5 ovarian): > 50 µM
- GI50 (NCI/ADR-RES ovarian): 24.5 µM
- TGI (NCI/ADR-RES ovarian): > 50 µM
- GI50 (OVCAR-8 ovarian): 23.9 µM
- TGI (OVCAR-8 ovarian): > 50 µM
- GI50 (RXF 393 renal): 33.5 µM
- TGI (RXF 393 renal): > 50 µM
- GI50 (MDA-MB-231 breast): 34.7 µM
- TGI (MDA-MB-231 breast): > 50 µM
- GI50 (HS 578T breast): > 44.7 µM
- TGI (HS 578T breast): > 50 µM
- GI50 (NCI-H522 lung): 21.3 µM
- TGI (NCI-H522 lung): > 50 µM
- GI50 (HL-60(TB) leukemia): 20.4 µM
- TGI (HL-60(TB) leukemia): > 50 µM
- GI50 (HOP-62 NSCLC): 34.7 µM
- TGI (HOP-62 NSCLC): > 50 µM
- GI50 (SNB-19 CNS): > 50 µM
- TGI (SNB-19 CNS): > 50 µM
- GI50 (786-0 renal): 36.4 µM
- TGI (786-0 renal): > 50 µM
- GI50 (ACHN renal): 3.51 µM
- TGI (ACHN renal): > 50 µM
- GI50 (SK-MEL-5 melanoma): 14.8 µM
- TGI (SK-MEL-5 melanoma): 49.6 µM
- GI50 (HT29 colon): 7.31 µM
- TGI (HT29 colon): > 50 µM
- GI50 (U251 CNS): > 41.9 µM
- TGI (U251 CNS): > 50 µM
- GI50 (HCT-116 colon): 3.75 µM
- TGI (HCT-116 colon): > 50 µM
- GI50 (MCF7 breast): 2.92 µM
- TGI (MCF7 breast): > 50 µM
- GI50 (BT-549 breast): > 37.3 µM
- TGI (BT-549 breast): > 50 µM
- GI50 (MDA-MB-435): 23 µM
- TGI (MDA-MB-435): > 50 µM
- GI50 (SN12C renal): 29.9 µM
- TGI (SN12C renal): > 50 µM
- GI50 (NCI-H460 lung): 27.1 µM
- TGI (NCI-H460 lung): > 50 µM
- GI50 (UO-31 renal): 10.2 µM
- TGI (UO-31 renal): > 50 µM
- GI50 (SNB-75 CNS): > 50 µM
- TGI (SNB-75 CNS): > 50 µM
- GI50 (IGROV1 ovarian): > 37.5 µM
- TGI (IGROV1 ovarian): > 50 µM
- GI50 (HCC-2998 colon): > 50 µM
- TGI (HCC-2998 colon): > 50 µM
- GI50 (K-562 leukemia): 5.85 µM
- TGI (K-562 leukemia): > 50 µM
- GI50 (TK-10 renal): > 25.6 µM
- TGI (TK-10 renal): > 50 µM
- GI50 (NCI-H23 lung): 48.7 µM
- TGI (NCI-H23 lung): > 50 µM
- GI50 (CAKI-1 renal): 12.4 µM
- TGI (CAKI-1 renal): > 50 µM
- GI50 (SK-MEL-28 melanoma): > 36.9 µM
- TGI (SK-MEL-28 melanoma): > 50 µM
- GI50 (COLO 205 colon): 1.92 µM
- TGI (COLO 205 colon): > 50 µM
- GI50 (HCT-15 colon): 9.76 µM
- TGI (HCT-15 colon): > 50 µM
- GI50 (MOLT-4 leukemia): 7.68 µM
- TGI (MOLT-4 leukemia): > 50 µM
- GI50 (UACC-257 melanoma): 11.2 µM
- TGI (UACC-257 melanoma): > 50 µM
- GI50 (CCRF-CEM leukemia): 6.89 µM
- TGI (CCRF-CEM leukemia): > 50 µM
- GI50 (SR leukemia): 17 µM
- TGI (SR leukemia): > 50 µM
- GI50 (SF-539 CNS): 44.3 µM
- TGI (SF-539 CNS): > 50 µM
- GI50 (HOP-92 NSCLC): 15.9 µM
- TGI (HOP-92 NSCLC): > 50 µM
- GI50 (RPMI-8226 leukemia): 13.6 µM
- TGI (RPMI-8226 leukemia): > 50 µM
- GI50 (SF-295 CNS): 21.2 µM
- TGI (SF-295 CNS): > 50 µM
- GI50 (A498 renal): 3.84 µM
- TGI (A498 renal): > 50 µM
- GI50 (SK-OV-3 ovarian): > 50 µM
- TGI (SK-OV-3 ovarian): > 50 µM
- GI50 (PC-3 prostate): 30.6 µM
- TGI (PC-3 prostate): > 50 µM
- GI50 (SK-MEL-2 melanoma): > 50 µM
- TGI (SK-MEL-2 melanoma): > 50 µM
- GI50 (KM12 colon): > 46.6 µM
- TGI (KM12 colon): > 50 µM
- GI50 (SF-268 CNS): 34.8 µM
- TGI (SF-268 CNS): > 50 µM
- GI50 (M14 melanoma): 24.7 µM
- TGI (M14 melanoma): > 50 µM
- GI50 (OVCAR-3 ovarian): 2.58 µM
- TGI (OVCAR-3 ovarian): > 50 µM
- GI50 (A549 NSCLC): 26.7 µM
- TGI (A549 NSCLC): > 50 µM
- GI50 (NCI-H226 lung): 40.3 µM
- TGI (NCI-H226 lung): > 50 µM
- GI50 (SW-620 colon): 14.9 µM
- TGI (SW-620 colon): > 50 µM
- GI50 (MALME-3M melanoma): > 17.1 µM
- TGI (MALME-3M melanoma): > 50 µM
- GI50 (LOX IMVI melanoma): 29.8 µM
- TGI (LOX IMVI melanoma): > 50 µM
- GI50 (OVCAR-4 ovarian): 2.32 µM
- TGI (OVCAR-4 ovarian): > 50 µM
- GI50 (UACC-62 melanoma): 16.9 µM
- TGI (UACC-62 melanoma): > 50 µM
- GI50 (T-47D breast): 1.04 µM
- TGI (T-47D breast): > 50 µM
